Patent publication US20230321188A1, “AUTOPHAGY INDUCING PEPTIDES” (TRANSLATIONAL HEALTH SCIENCE AND TECHNOLOGY INSTITUTE, priority 2020, published 2023)
Where a SMILES comes first, the peptide text is derived from it.

Legend:
S. typhimurium = assay type: cell-based; details: 24 h
mTOR = mTOR independent activation of autophagy: western blot of S6Kinase / 4E-BP1 phosphorylation; assay type: cell-based; details: Huh7 cells, peptides 10 μM, 6 h
Experimental: FIG. 5 depicts mTOR independent activation of autophagy Huh7 cells were treated with peptides (10 μM) and torin1 (1 μM) for 6 h and lysed in lysis buffer (1mM EDTA, 20 mM Tris-HCl pH 7.4, 250 mM NaCl, PMSF, and PI). Western blot was performed by GAPDH (internal control), […] and S6K1 antibodies. The peptides were tested for inhibition of mTOR by testing for phosphorylation of enzyme p70S6K. The phosphorylation of p-p70S6K at threonine 389 has been used as a hallmark of activation by mTOR.
Huh7/HeLa cells were treated with peptides 10 μM for 6 h and protein lysates were analysed by western blotting using pS6Kinase, S6Kinase, p-4E-BP1, 4E-BP1 and GAPDH antibodies. Torin 1 was used as positive control.

[1] = test system: S. typhimurium (strain Xen33); experiment: In vivo S. typhimurium (Xen33) infection and disease progression in FVB mice
Experimental: For the in vivo studies, mouse S. typhimurium (strain Xen33) infection carried out as per the previous protocol of Griffin et al., 2011. In brief, mice were pre-treated with streptomycin. Water and food were withdrawn before 4hours of infection. For the experiments, 6-8 weeks of FVB male mice were utilized in a group of 5. Mice related experiments and its maintenance were carried out in a small animal facility at THSTI, Faridabad. […] FVB mice were infected orally with Xen-33(S. typhimurium) and its bioluminescence was measured by in vivo imaging with IVIS Lumina (Perkin Elmer) and quantified with living image software version 4.2. Bioluminescent levels were measured as radiance (p/sec/cm^2/sr), by using a pseudo scale for measurement in which blue represents low intensity and red represents high intensity. Posts in vivo imaging, the bacterial burden in faecal sample were also measured.
Mice having Salmonella typhimurium infection or non-infected were sacrificed and their intestine was removed for immunohistochemistry studies. Intestines were washed with PBS and fixed in 10% formaldehyde. Thereafter, fine-sectioned on a microtome. Tissue blocks were prepared on Paraffin wax and then hematoxylin and eosin (HE) staining was carried out. The finally stained sections were then observed, and images were acquired by using the Ti Eclipse Nikon microscope. The scoring was done by random scoring by different individuals.
In vivo effect of p7T treatment on S. typhimurium infection and disease progression in FVB mice. Recovery of chronically S. typhimurium infected FVB mice was studied in the presence of P7T&P13T. […] Colon samples were further examined for histological changes. […] The stool was collected, plated on SS agar to determine S. typhimurium colony formation.
(c) In vivo imaging and intensity quantitation of mice infected with S. typhimurium strain (Xen33) expressing luciferase on the 8th day (n=5 mice per group). […] (i) Immunohistochemistry images (40×) showing expression of HIF-1α and its quantification in the colon (n=5). […] Data representative of triplicates and repeated three times each individual experiments*P<0.05, **P <0.01, ***P<0.001, **** P<0.0001, ns, non-significant. (Student's t-test and one-way ANOVA).

GAPR-1 [2] = target: T1, GAPR-1 (UniProt Q9H4G4 2-154, limits assumed); experiment: MicroScale Thermophoresis (MST), purified Gapr-1
T1 construct: Purified protein used in MST; also called purified Gapr-1
T1 sequence (looked up): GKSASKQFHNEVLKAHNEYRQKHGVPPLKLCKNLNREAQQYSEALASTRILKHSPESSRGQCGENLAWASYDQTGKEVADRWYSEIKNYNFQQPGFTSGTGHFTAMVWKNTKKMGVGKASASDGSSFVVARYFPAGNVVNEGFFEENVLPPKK

GAPR-1 [3] = target: T1, GAPR-1; experiment: MicroScale Thermophoresis (MST), peptide titrated on purified Gapr-1; fraction bound against peptide conc. (M) [3A]
[4] = FVB mice infected with S. typhimurium

| Molecule | interference with phosphorylation of p70S6K and mTOR activity (mTOR) | Kd (GAPR-1 [2]) [nM] | further results |
| --- | --- | --- | --- |
| NC(=O)C[C@H](NC(=O)CNC(=O)[C@H](Cc1ccc(O)cc1)NC(=O)[C@@H]1CCCN1)C(=O)N[C@@H](Cc1c[nH]cn1)C(=O)N[C@@H](CO)C(=O)N[C@@H](Cc1ccc(O)cc1)C(=O)O [P3T] (H-PYGNHSY-OH; N-terminus and C-terminus assumed) | – | – | inhibition of S. typhimurium (S. typhimurium): 49.5% |
| CC[C@H](C)[C@H](NC(=O)[C@@H](NC(=O)CNC(=O)[C@@H](N)Cc1ccccc1)[C@@H](C)O)C(=O)N[C@@H](CC(N)=O)C(=O)N[C@@H](CC(N)=O)C(=O)N[C@@H](Cc1ccccc1)C(=O)N[C@@H](CCCNC(=N)N)C(=O)N[C@@H](CC(C)C)C(=O)O [P7T] (H-FGTINNFRL-OH) | did not interfere with the phosphorylation of p70S6K and mTOR activity | – | bacterial burden in faecal sample / stool ([1]; FVB mice infected orally with Xen-33, stool plated on SS agar): significant decrease in bacterial burden; length of the colon [1, 4]: significantly reduced in untreated mice compare to P7T; splenomegaly [1, 4]: difference in splenomegaly was not observed; histopathology score ([1]; intestine/colon H&E staining, FVB mice infected with S. typhimurium): significantly less |
| CC(C)C[C@H](NC(=O)CNC(=O)CNC(=O)[C@H](CO)NC(=O)[C@H](CS)NC(=O)[C@H](Cc1ccc(O)cc1)NC(=O)[C@@H](N)CC(C)C)C(=O)N[C@@H](CCCNC(=N)N)C(=O)N[C@@H](Cc1ccccc1)C(=O)N[C@@H](Cc1ccccc1)C(=O)N[C@@H](Cc1c[nH]c2ccccc12)C(=O)N[C@@H](CC(=O)O)C(=O)O [P8T] (H-LYCSGGLRFFWD-OH) | – | – | inhibition of S. typhimurium (S. typhimurium): 62.16% |
| CC(C)C[C@H](NC(=O)[C@H](C)NC(=O)[C@H](Cc1c[nH]cn1)NC(=O)[C@H](CC(C)C)NC(=O)[C@H](CC(C)C)NC(=O)[C@H](CC(C)C)NC(=O)[C@@H](NC(=O)[C@@H](NC(=O)[C@@H](N)CCC(N)=O)[C@@H](C)O)C(C)C)C(=O)O [P9T] (H-QTVLLLHAL-OH) | did not interfere with the phosphorylation of p70S6K and mTOR activity | – | – |
| CC(C)C[C@H](NC(=O)[C@H](Cc1ccc(O)cc1)NC(=O)[C@H](CO)NC(=O)[C@H](Cc1c[nH]cn1)NC(=O)[C@H](CC(N)=O)NC(=O)CNC(=O)[C@H](Cc1ccc(O)cc1)NC(=O)[C@@H]1CCCN1C(=O)[C@@H](NC(=O)[C@H](CC(C)C)NC(=O)[C@@H](N)CCCNC(=N)N)C(C)C)C(=O)N[C@@H](CCC(=O)O)C(=O)N[C@@H](CO)C(=O)O [P13T] (H-RLVPYGNHSYLES-OH) | did not interfere with the phosphorylation of p70S6K and mTOR activity | – | – |
| FGTINNFRL (also called peptide P7T) [P7T] | – | 130 | – |
| PYGNHSY (also called peptide P3T) [P3T] | – | – | Kd (GAPR-1 [3]): 210 nM |
| LYCSGGLRFFWD (also called peptide P8T) [P8T] | – | 120 | – |
| QTVLLLHAL (also called peptide P9T) [P9T] | – | 1560 | – |
| RLVPYGNHSYLES (also called peptide P13T) [P13T] | – | 70 | – |
